Measured values as given in patent EP4781984A1 (Beyang Therapeutics Co., Ltd., priority 2023, dated 2025).

Tests used:
[1] = molecular target: T1, VEGFR2 autophosphorylation (pVEGFR2) in HUVEC cells (Homo sapiens, UniProt P35968); assay: Inhibition of VEGF-induced VEGFR2 phosphorylation in HUVEC cells (ELISA); assay type: cell-based; details: 50 ng/mL human VEGF, compound 1 hour
T1 construct: endogenous in cells; host or cells: HUVEC
Source text: Assay for Compound Inhibition of VEGFR2 Phosphorylation in HUVEC Cells
VEGF is a potent growth factor that promotes angiogenesis and vascular permeability. Vascular endothelial growth factor receptor 2 (VEGFR2) is the primary receptor for VEGF-induced endothelial cell signaling. Upon ligand binding, VEGFR2 undergoes autophosphorylation and is activated. The primary function from VEGFR2 signaling is to induce blood vessel formation during development and after tissue injury, and to bypass blocked vessels. Pathologically, VEGF and VEGFR2 are involved in tumor angiogenesis and vascular leakage. They are considered major players in many different cancers and ocular diseases accompanied by pathological neovascularization. This assay uses ELISA to measure the compound's ability to inhibit VEGF-induced VEGFR2 autophosphorylation (pVEGFR2) in HUVEC cells. Table 7. Reagents and Instruments
Before cell seeding, cells reached 60%-80% confluency in cell culture flasks. The cell suspension was diluted with pre-warmed complete medium to 4.5×10^6 cells/mL. 80 microliters of cell suspension was added to all wells of a 96-well cell plate (Corning-3599); incubated overnight at 37°C and 5% CO2. Compound powder was dissolved in DMSO to 10 mM and stored in a nitrogen cabinet. Compound dilution master plate: In a 96-well V-bottom plate (Axygen- WIPP02280), reference compound Ponatinib or test compound concentrations were added, starting from 5 mM (5 microliters of 10 mM compound solution plus 5 microliters DMSO) with 3-fold serial dilutions for a total of 8 concentration points. […] 20 microliters of diluted compound was transferred from the intermediate plate to the cell plate. The cell plate was then incubated at 37°C and 5% CO2 for 1 hour. […] It was gently shaken for 30 seconds, and the absorbance was measured within 30 minutes using a SpectraMax® 340 PC 384 Absorbance Microplate Reader, reading the optical density value at 450 nm. […]
All other values are expressed as a percentage of these controls (inhibition rate). […]

[2] = molecular target: T2, VEGFR1 (Homo sapiens, UniProt P17948); assay: Kinase inhibitory activity, Mobility Shift Assay (VEGFR1); assay type: biochemical
T2 construct: purchased Invitrogen PR6731B
Experimental: (§1) Assay for Inhibitory Activity of Compounds Against VEGFR and EGFR Kinases
(§2) This assay directly monitors the inhibitory activity of compounds on kinase phosphorylation by measuring non-phosphorylated and phosphorylated substrates in the kinase reaction using Mobility Shift Assays/IMAP™ analysis. Table 2. Reagents and Instruments
(§3) Kinase and DTT were added to 1X kinase buffer to form a 2.5X kinase solution; 10 µL of the 2.5X kinase solution was transferred to a 384-well reaction plate, and 1X kinase buffer was added to the negative control wells. The plate was incubated at room temperature for 10 minutes; FAM-labeled peptide, MgCl2, ATP, and other reagents were added to 1X kinase buffer to form a 2.5X substrate solution; 10 µL of the above 2.5X substrate solution was transferred to the 384-well reaction plate; the plate was incubated at 28°C for varying times, and then 25 µL of stop solution was added to the 384-well reaction plate to terminate the reaction. Conversion rate data were read on a CaliperEZ Reader II. […] IC50 values were fitted using XLFit excel add-in version 5.4.0.8. Y = Bottom + (Top−Bottom)/(1 + […]) [formula]
(§4) X is the log value of compound concentration, Y is the inhibition rate (% inhibition).

[3] = molecular target: T3, VEGFR3 (Homo sapiens, UniProt P35916); assay: Kinase inhibitory activity, Mobility Shift Assay (VEGFR3); assay type: biochemical
T3 construct: purchased Invitrogen PV4129
T3 sequence (P35916 25-1363): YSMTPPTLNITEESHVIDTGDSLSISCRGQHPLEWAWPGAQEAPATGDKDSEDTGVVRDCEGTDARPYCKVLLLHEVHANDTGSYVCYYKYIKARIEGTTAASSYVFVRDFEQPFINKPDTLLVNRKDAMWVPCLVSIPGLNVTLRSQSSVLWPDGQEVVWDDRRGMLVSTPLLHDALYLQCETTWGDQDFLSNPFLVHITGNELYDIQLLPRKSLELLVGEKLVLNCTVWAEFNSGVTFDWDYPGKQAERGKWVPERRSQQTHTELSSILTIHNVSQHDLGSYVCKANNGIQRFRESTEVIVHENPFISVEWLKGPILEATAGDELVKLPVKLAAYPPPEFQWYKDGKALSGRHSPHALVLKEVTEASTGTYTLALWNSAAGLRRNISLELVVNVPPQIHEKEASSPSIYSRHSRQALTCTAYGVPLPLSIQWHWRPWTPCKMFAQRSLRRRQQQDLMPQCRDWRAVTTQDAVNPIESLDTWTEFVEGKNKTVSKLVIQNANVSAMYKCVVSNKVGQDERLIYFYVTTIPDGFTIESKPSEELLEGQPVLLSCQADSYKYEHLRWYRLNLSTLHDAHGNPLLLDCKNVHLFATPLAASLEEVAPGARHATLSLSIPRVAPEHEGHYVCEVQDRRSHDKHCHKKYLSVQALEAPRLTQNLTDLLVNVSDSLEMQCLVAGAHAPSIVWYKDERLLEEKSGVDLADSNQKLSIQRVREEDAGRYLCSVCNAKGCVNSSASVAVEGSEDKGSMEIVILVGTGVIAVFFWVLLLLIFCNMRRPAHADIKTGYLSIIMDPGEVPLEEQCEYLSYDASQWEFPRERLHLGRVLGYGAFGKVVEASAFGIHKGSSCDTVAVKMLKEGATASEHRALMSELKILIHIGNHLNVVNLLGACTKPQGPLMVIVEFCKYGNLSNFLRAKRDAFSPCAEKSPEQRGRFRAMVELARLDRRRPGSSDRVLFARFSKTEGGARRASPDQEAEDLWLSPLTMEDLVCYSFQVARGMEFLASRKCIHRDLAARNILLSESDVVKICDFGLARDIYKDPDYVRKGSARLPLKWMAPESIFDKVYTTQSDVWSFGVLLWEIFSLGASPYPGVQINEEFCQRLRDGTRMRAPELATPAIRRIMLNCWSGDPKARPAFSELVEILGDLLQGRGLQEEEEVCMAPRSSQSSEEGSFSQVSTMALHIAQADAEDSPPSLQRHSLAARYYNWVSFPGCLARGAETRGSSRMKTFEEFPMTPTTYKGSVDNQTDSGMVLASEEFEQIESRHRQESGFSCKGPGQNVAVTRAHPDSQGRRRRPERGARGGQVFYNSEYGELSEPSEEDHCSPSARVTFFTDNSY
Experimental: as §1, §2, §3, §4

[4] = molecular target: T4, VEGFR2 (Homo sapiens, UniProt P35968); assay: Kinase inhibitory activity, Mobility Shift Assay (VEGFR2); assay type: biochemical
T4 construct: purchased Carna 08-191
T4 sequence (P35968 20-1356): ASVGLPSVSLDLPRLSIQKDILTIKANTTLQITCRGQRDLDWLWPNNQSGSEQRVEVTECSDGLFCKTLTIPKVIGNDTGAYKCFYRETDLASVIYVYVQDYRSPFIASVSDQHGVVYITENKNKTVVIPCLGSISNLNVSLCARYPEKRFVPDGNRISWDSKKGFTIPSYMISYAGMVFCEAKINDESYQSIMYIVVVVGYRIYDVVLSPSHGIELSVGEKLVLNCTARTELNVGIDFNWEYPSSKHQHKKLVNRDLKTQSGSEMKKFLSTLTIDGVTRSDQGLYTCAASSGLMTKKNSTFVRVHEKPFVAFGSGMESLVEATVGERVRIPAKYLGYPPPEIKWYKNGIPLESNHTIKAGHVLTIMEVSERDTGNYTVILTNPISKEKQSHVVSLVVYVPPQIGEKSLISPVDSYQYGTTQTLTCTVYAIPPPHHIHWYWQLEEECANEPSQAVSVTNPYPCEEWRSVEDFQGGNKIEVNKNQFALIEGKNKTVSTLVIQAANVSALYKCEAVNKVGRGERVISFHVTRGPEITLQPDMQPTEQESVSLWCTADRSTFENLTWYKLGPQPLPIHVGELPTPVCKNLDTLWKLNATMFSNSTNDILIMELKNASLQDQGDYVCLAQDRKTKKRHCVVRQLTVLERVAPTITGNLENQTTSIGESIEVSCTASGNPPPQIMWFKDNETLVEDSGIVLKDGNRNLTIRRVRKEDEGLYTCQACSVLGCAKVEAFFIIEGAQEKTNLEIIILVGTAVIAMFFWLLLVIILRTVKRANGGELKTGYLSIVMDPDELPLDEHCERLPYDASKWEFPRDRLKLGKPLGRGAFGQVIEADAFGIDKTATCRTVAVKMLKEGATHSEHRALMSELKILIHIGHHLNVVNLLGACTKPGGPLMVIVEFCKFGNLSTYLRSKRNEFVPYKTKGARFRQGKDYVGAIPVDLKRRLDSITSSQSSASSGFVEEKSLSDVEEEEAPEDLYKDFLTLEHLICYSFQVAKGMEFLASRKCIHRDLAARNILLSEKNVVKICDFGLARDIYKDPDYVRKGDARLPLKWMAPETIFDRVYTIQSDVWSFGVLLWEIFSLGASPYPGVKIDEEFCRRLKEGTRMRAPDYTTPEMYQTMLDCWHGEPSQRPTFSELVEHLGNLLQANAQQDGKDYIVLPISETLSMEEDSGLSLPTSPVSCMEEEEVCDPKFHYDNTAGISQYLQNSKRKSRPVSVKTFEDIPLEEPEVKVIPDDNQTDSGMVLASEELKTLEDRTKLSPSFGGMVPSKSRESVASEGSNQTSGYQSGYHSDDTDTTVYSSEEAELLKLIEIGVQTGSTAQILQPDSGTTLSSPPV
How it was run: (§5)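 Each kinase pre-incubated 10 min at room temperature, then FAM-labelled peptide with MgCl2 and ATP added; reaction at 28 °C for kinase-dependent times before stop. Substrate conversion read by mobility shift; IC50 from a four-parameter fit of % inhibition against log concentration.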

[5] = molecular target: T5, EGFR (Homo sapiens, UniProt P00533); assay: Kinase inhibitory activity, Mobility Shift Assay (EGFR); assay type: biochemical
T5 construct: purchased Carna 08-115
T5 sequence (P00533 25-1210): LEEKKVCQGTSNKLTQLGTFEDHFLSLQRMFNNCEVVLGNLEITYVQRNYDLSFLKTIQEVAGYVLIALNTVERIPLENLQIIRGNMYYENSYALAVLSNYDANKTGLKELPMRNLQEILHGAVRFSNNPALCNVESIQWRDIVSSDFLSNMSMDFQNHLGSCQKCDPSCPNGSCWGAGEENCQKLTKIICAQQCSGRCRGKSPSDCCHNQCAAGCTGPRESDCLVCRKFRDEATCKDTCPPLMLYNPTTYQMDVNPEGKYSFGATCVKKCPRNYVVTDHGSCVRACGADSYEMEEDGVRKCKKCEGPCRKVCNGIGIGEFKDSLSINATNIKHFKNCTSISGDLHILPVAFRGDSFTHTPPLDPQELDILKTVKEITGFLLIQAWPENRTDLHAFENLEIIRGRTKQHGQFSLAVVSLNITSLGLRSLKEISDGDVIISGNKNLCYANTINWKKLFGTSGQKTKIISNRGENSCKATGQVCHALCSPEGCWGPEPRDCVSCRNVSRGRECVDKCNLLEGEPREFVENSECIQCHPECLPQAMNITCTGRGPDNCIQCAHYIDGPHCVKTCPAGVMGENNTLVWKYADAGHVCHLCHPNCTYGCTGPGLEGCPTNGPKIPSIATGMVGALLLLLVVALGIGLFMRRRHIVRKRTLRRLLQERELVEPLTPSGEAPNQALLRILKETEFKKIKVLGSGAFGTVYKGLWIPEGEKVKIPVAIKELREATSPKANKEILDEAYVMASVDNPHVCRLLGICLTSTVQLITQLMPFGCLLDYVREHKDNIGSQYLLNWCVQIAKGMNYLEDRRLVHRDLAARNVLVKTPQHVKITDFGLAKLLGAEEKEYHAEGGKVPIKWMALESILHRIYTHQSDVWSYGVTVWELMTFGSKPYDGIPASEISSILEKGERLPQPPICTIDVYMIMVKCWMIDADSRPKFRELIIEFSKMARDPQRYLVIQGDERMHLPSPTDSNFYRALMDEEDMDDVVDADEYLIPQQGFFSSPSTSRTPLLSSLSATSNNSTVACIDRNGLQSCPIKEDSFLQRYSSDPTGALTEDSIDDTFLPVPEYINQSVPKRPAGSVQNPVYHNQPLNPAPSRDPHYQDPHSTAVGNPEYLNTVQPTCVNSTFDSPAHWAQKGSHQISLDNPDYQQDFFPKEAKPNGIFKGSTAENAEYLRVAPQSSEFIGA
How it was run: as §5

[6] = Ophthalmic formulations based on polyethylene glycol series vehicles: composition and state (Example 7); assay type: physicochemical
How it was run: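 Compound was dissolved, or nearly dissolved, in PEG 400 by sonication (heated to 50 °C if needed), then mixed into Tris-HCl buffer containing hydroxypropyl-β-cyclodextrin, poloxamer 188 and gellan gum or another viscosity modifier. Physical state was scored visually as solution, near-clear solution, suspension or gel.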

[7] = Table 15: 10 mg/mL, Polyethylene glycol 400 10, Hydroxypropyl-β-cyclodextrin 10, Gellan Gum Gelrite 0.3, Poloxamer 188 1, Tris solution and Citric acid
[8] = Table 16: 2 mg/mL, Polyethylene Glycol 400 5, Poloxamer 188 1, Hydroxypropyl-β-cyclodextrin 6, Gellan Gum Gelrite 0.15, Tris-HCl Buffer (pH 6.8) 25mM

T1 sequence (P35968 20-1356): as the sequence (P35968 20-1356) above

IC50 [1]	IC50 [2]	IC50 [3]	IC50 [4]	IC50 [5]	State Description: pH [6, 7]	State Description: state [6, 7]	Osmolality (mOsm/kg) [6, 8]	State Description: pH [6, 8]	State Description: state [6, 8]	SMILES
1 to 5 nM	1 to 10 nM	10 to 100 nM	1 to 10 nM	6000 to 60000 nM						O=C(NC1CC1)c1cccc(F)c1Sc1ccc2c(/C=C/c3cnn(CCCN4CCCC4)c3)n[nH]c2c1 [Compound I-44, N-cyclopropyl-3-fluoro-2-({3-[(E)-2-{1-[3-(pyrrolidin-1-yl)propyl]-1H-pyrazol-4-yl}ethenyl]-1H-indazol-6-yl}sulfanyl)benzamide]
					~5.5	gel	~300 mOsm/kg	~7	solution	CCNC(=O)c1cc(F)ccc1Sc1ccc2c(/C=C/c3ccc(CN4CCCC4)cn3)n[nH]c2c1 [Compound I-97, N-ethyl-5-fluoro-2-({3-[(E)-2-{5-[(pyrrolidin-1-yl)methyl]pyridin-2-yl}ethenyl]-1H-indazol-6-yl}sulfanyl)benzamide]
